Assays:
Test in all cases: combination Emax (second highest fraction inhibited in the dose matrix, 72 h); higher = more inhibition; extreme values may be limits of the assay
M059J (Glioblastoma) = system: M059J (Glioblastoma)
Method in brief: (§1)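 Cell lines in DMEM/F12 or RPMI with 10% FBS were plated in 1536-well plates, held 24 hours at 37°C, 5% CO2, then given two-drug dose matrices for 72 hours (DMSO typically 0.2%). Viability was read by CellTiter-Glo 2.0 luminescence and scaled as inhibition from 0 (vehicle wells) to 1 (blank wells). Combination Emax is the second-highest inhibition in the matrix; Bliss excess is observed combination effect minus expected EA + EB − EA·EB, EA and EB being single-agent effects.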

[1] = system: NCI-H3122 (Lung Adenocarcinoma)
Method in brief: as §1

[2] = system: NCI-H929 (Plasma Cell Myeloma)
Method in brief: as §1

[3] = system: SK-GT-4 (Esophageal Adenocarcinoma)
Method in brief: as §1

[4] = system: NCCIT (Other Solid Carcinomas)
Method in brief: as §1

[5] = system: NCI-H520 (Squamous Cell Lung Carcinoma)
Method in brief: as §1

[6] = system: COR-L279 (Small Cell Lung Carcinoma)
Method in brief: as §1

[7] = system: MOG-G-CCM (Low Grade Glioma)
Method in brief: as §1

[8] = system: KU812 (Chronic Myelogenous Leukemia)
Method in brief: as §1

[9] = system: NCI-H526 (Small Cell Lung Carcinoma)
Method in brief: as §1

[10] = system: OCI-AML3 (Acute Myeloid Leukemia)
Method in brief: as §1

SJSA-1 (Osteosarcoma) = system: SJSA-1 (Osteosarcoma)
Method in brief: as §1

[11] = system: KYSE-270 (Esophageal Squamous Cell Carcinoma)
Method in brief: as §1

[12] = system: MN-60 (B-Lymphoblastic Leukemia)
Method in brief: as §1

[13] = system: DMS-114 (Small Cell Lung Carcinoma)
Method in brief: as §1

[14] = system: ST486 (Burkitt's Lymphoma)
Method in brief: as §1

[15] = system: VMRC-RCZ (Kidney Carcinoma)
Method in brief: as §1

[16] = system: T-T (Esophageal Squamous Cell Carcinoma)
Method in brief: as §1

[17] = system: CW-2 (Colorectal Carcinoma)
Method in brief: as §1

[18] = system: KP-3 (Pancreatic Carcinoma)
Method in brief: as §1

SMILES	combination Emax (M059J (Glioblastoma))	combination Emax [1]	combination Emax [2]	combination Emax [3]	combination Emax [4]	combination Emax [5]	combination Emax [6]	combination Emax [7]	combination Emax [8]	combination Emax [9]	combination Emax [10]	combination Emax (SJSA-1 (Osteosarcoma))	combination Emax [11]	combination Emax [12]	combination Emax [13]	combination Emax [14]	combination Emax [15]	combination Emax [16]	combination Emax [17]	combination Emax [18]
C[C@@H](Nc1cc(F)cc(F)c1)c1cc(C(=O)N(C)C)cc2c(=O)cc(N3CCOCC3)oc12 [AZD8186] + C1CN(CCC1(C(=O)N[C@@H](CCO)C2=CC=C(C=C2)Cl)N)C3=NC=NC4=C3C=CN4 [AZD5363] (first compound max 10 µM, 7x7, partner max 10 µM)	0.408	0.522	1	0.457	0.499	0.564	0.679	0.581	0.161	0.147	0.428	0.426	0.347	0.193	0.472	0.151	0.386	0.301	0.275	0.312
CN(CCO)CC[C@H](CSc1ccccc1)Nc1ccc(S(=O)(=O)NC(=O)c2ccc(N3CCC([C@@H](O)c4ccccc4-c4ccc(Cl)cc4)CC3)cc2)cc1S(=O)(=O)C(F)(F)F [AZD4320] + CC(=O)O[C@H]1C(=O)[C@@]2(C)[C@H]([C@H](OC(=O)c3ccccc3)[C@]3(O)C[C@H](OC(=O)[C@H](O)[C@@H](NC(=O)c4ccccc4)c4ccccc4)C(C)=C1C3(C)C)[C@]1(OC(C)=O)CO[C@@H]1C[C@@H]2O [Paclitaxel] (first compound max 1 µM, 7x7, partner max 3 µM)	0.974	0.999	0.926	0.894	0.989	0.944	1	0.996	0.943	1	1	0.967	0.913	0.546	0.879	1	0.693	0.92	0.608	0.8
O=C(c1cc(Cc2n[nH]c(=O)c3ccccc23)ccc1F)N1CCN(C(=O)C2CC2)CC1 [Olaparib] + CN(CC[C@H](CSC1=CC=CC=C1)NC2=C(C=C(C=C2)S(=O)(=O)NC(=O)C3=CC=C(C=C3)N4CCC(CC4)[C@H](C5=CC=CC=C5C6=CC=C(C=C6)Cl)O)S(=O)(=O)C(F)(F)F)CCO [AZD4320] (first compound max 10 µM, 7x7, partner max 1 µM)	0.321	0.223	0.142	0.154	0.198	0.125	0.992	0.445	0.862	0.916	0.548	0.133	0.383	0.25	0.214	0.754	0.0911	0.233	0.113	0.104
C=CCn1c(=O)c2cnc(Nc3ccc(N4CCN(C)CC4)cc3)nc2n1-c1cccc(C(C)(C)O)n1 [AZD1775] + CCc1c2c(nc3ccc(O)cc13)-c1cc3c(c(=O)n1C2)COC(=O)[C@]3(O)CC [SN-38] (first compound max 1 µM, partner max 0.3 µM)	0.891	0.853	0.927	0.486	0.841	0.808	1	0.703	0.87	1	0.922	0.706	0.981	0.818	0.655	0.997	0.462	0.776	0.625	0.397
Cc1nc(-c2cn3c(n2)-c2ccc(-c4cnn(C(C)(C)C(N)=O)c4)cc2OCC3)n(C(C)C)n1 [Taselisib] + O=C(Nc1ccc2[nH]nc(-c3ccncc3)c2c1)[C@@H]1CCN(CC(=O)N2CCN(c3ccc(-c4ncccn4)cc3)CC2)C1 [SCH772984] (first compound max 10 µM, 7x7, partner max 5 µM)	0.564	0.978	1	0.924	0.693	0.638	0.835	0.577	1	0.189	0.941	0.69	0.822	0.31	0.732	0.654	0.361	0.853	0.546	0.354
C[C@@H](Oc1cc(-c2cnn(C3CCNCC3)c2)cnc1N)c1c(Cl)ccc(F)c1Cl [Crizotinib] + CC1=C(C(=CC=C1)Cl)NC(=O)C2=CN=C(S2)NC3=CC(=NC(=N3)C)N4CCN(CC4)CCO [Dasatinib] (first compound max 10 µM, 7x7, partner max 2 µM)	0.829	0.881	0.999	0.812	0.342	0.659	0.839	0.921	1	0.452	0.639	0.885	0.792	0.494	0.591	0.95	0.846	0.825	0.306	0.127
Cc1cc2ncnn2cc1Nc1ncc2c(n1)n(C1CCOCC1)c(=O)n2C [AZD7648] + COc1cc([C@@H]2c3cc4c(cc3[C@@H](O[C@@H]3O[C@@H]5CO[C@@H](C)O[C@H]5[C@H](O)[C@H]3O)[C@H]3COC(=O)[C@H]23)OCO4)cc(OC)c1O [Etoposide] (first compound max 10 µM, 7x7, partner max 10 µM)	0.775	0.67	0.988	0.387	0.495	0.698	1	0.577	0.792	0.999	0.943	0.503	0.871	0.829	0.658	0.933	0.399	0.362	0.379	0.312
C[C@@H](Oc1cc(-c2cnn(C3CCNCC3)c2)cnc1N)c1c(Cl)ccc(F)c1Cl [Crizotinib] + Cn1cnc2c(F)c(Nc3ccc(Br)cc3Cl)c(C(=O)NOCCO)cc21 [Selumetinib] (first compound max 10 µM, 7x7, partner max 10 µM)	0.257	0.916	1	0.461	0.4	0.616	0.755	0.374	1	0.508	0.997	0.82	0.441	0.38	0.527	0.936	0.174	0.759	0.37	0.208
N#Cc1cnc(Nc2cc(NC[C@H]3CNCCO3)c(C(F)(F)F)cn2)cn1 [SRA737] + O=c1[nH]cc(F)c(=O)[nH]1 [5-Fluorouracil] (first compound max 10 µM, 7x7, partner max 20 µM)	0.315	0.611	0.768	0.407	0.458	0.588	0.821	0.419	0.606	0.855	0.922	0.403	0.99	0.436	0	0.928	0.354	0.384	0.403	0.307
N#Cc1cnc(Nc2cc(NC[C@H]3CNCCO3)c(C(F)(F)F)cn2)cn1 [SRA737] + CCc1c2c(nc3ccc(O)cc13)-c1cc3c(c(=O)n1C2)COC(=O)[C@]3(O)CC [SN-38] (first compound max 10 µM, 7x7, partner max 0.3 µM)	0.908	0.857	0.9	0.55	0.783	0.819	1	0.734	0.799	0.993	0.849	0.664	1	0.79	0.608	0.991	0.579	0.834	0.625	0.273
Cc1c2c(nn1C)CSCc1cc(n(C)n1)CSc1cc(c3ccccc3c1)OCCCc1c(C(=O)O)n(C)c3c-2c(Cl)ccc13 [AZD5991] + CS(=O)(=O)CCNCc1ccc(-c2ccc3ncnc(Nc4ccc(OCc5cccc(F)c5)c(Cl)c4)c3c2)o1 [Lapatinib] (first compound max 1 µM, 7x7, partner max 10 µM)	0.456	0.392	1	0.379	0.635	0.435	0.903	0.358	0.867	0.469	0.985	0.196	0.959	0.158	0.608	0.758	0.209	0.988	0.531	0.303
Cc1c2c(nn1C)CSCc1cc(n(C)n1)CSc1cc(c3ccccc3c1)OCCCc1c(C(=O)O)n(C)c3c-2c(Cl)ccc13 [AZD5991] + CC(=O)O[C@H]1C(=O)[C@@]2(C)[C@H]([C@H](OC(=O)c3ccccc3)[C@]3(O)C[C@H](OC(=O)[C@H](O)[C@@H](NC(=O)c4ccccc4)c4ccccc4)C(C)=C1C3(C)C)[C@]1(OC(C)=O)CO[C@@H]1C[C@@H]2O [Paclitaxel] (first compound max 1 µM, 7x7, partner max 3 µM)	0.865	0.965	1	0.454	0.984	0.769	0.997	0.936	0.918	1	1	0.725	0.962	0.539	0.944	0.994	0.358	0.989	0.497	0.365

— the supplement of paper PMC11061612
